Source: patent US20070281028A1, “Drug Delivery of a Cox Inhibitor from Embolic Agents” (Biocompatibles Uk Limited, priority 2004, published 2007)
Values joined by “and” are separate entries in the source; they are usually repeats but may differ in a detail not shown here. Equal entries are not always repeated.

What was measured:
[1] = Loading (uptake) of drug into microspheres, from depletion of loading solution (UV/HPLC); type: physicochemical; settings: for dose loaded per ml of hydrated microspheres: 5 ml of 100 mg/ml drug in ethanol added to 0.5 ml microspheres; for ketoprofen loaded/ml spheres, maximum loading: at 24 hours; for ketorolac loaded in microspheres: low AMPS 500-710 μm, loaded from water
Experimental: A solution of 100 mg/ml flurbiprofen (Sigma) in ethanol was prepared. […] Low AMPS and high AMPS microspheres of size 500-710 μm were used and drug uptake monitored by UV. The samples were agitated on a roller mixer. Aliquots of supernatant were taken at 10, 20, 30, 60 mins and then at 2 hr, out to 24 hr. Uptake was calculated from the flurbiprofen remaining in solution. […] Microspheres of the present invention of each size loaded with 200 mg/ml flurbiprofen were placed in 250 ml water at 37° C.
The samples were agitated on a roller mnixer.
5 ml of the solution was added to 0.5 ml of low AMPS microspheres, of size 500-710 μm, and uptake monitored by HPLC. The samples were agitated on a roller mixer. Aliquots of supernatant were taken at 5, 10, 20 40 and 60 mins and then 24 hr.
The samples were agitated on a roller mixer. Samples of the supernatant were taken at 10, 20, 40, 60 mins and 24 hrs. […] Elution experiments were carried out on these microspheres (table 1). Microspheres were washed to determine quick burst in various media as in table 1. Then samples were placed in 10 ml solvent and absorbance read after 10 mins, a further 20 ml added and absorbance read after 10 mins, this was repeated up to 90 mls and elution was monitored up to 24 hrs (table 1).
Once prepared, the absorbances of the solutions were read by UV at 263 nm and dilutions were made to produce a standard curve. […] The vials were placed on a roller mixer at room temperature for the entire experiment. At a predetermined time points (0, 10, 20, 30 and 60 min) 100 μl was removed, diluted as necessary (1/200) and read at 263 nm. From the readings and the standard curve, the concentration of the solution at each time point was calculated. The amount of drug loaded onto the beads was measured by the depletion of the drug in solution when extracted with the beads. From the data the mg drug loaded per 1 ml of hydrated beads were calculated and the graph plotted.
Five samples of 1 ml of hydrated beads Low AMPS 700 to 1100 μm were used. For each sample, 1 ml of beads in phosphate buffered saline (PBS), measured with a 10 ml—glass cylinder, was transferred to a glass container and all the PBS was carefully removed with a glass Pasteur pipette. […] Once prepared, the absorbances of the solution and dilutions were read by UV at 263 nm to produce a standard curve. […] The vials were placed on the roller mixer at room temperature for the entire experiment. At predetermined time points (0, 20, 40, 60 and 120 min) 100 μl was removed, diluted as necessary (1/200) and read at 263 nm. From the readings and the standard curve, the concentration of the solution at each time point was calculated. The amount of drug loaded onto the beads was measured by the depletion of the drug in solution. From the data the mg drug loaded per 1 ml of beads were calculated and the graph plotted (FIG. 12).
Six samples of 1 ml of beads (700-1100 μm) were used. For each sample, 1 ml of beads in phosphate buffered saline (PBS), measured with a 10 ml glass cylinder, was transferred to a glass container and all the PBS was carefully removed with a glass Pasteur pipette. […] Once prepared, the absorbances of the solution and dilutions of the aqueous and of the alcoholic solutions were read by UV at 263 nm to produce standard curves. […] The vial was placed on the roller mixer at room temperature for the entire experiment. Once loaded, the remaining solution was removed, measured in a graduated measurement cylinder and read at 263 nm.

HIF-2 alpha = settings: COX-2 independent; cited from earlier work
HIF-1 alpha = settings: COX-2 independent; cited from earlier work
[2] = Release (elution) of drug from loaded microspheres in vitro; type: physicochemical; settings: for salicylic acid loaded that was released: 100 ml water, majority within the first 15 minutes
COX-2/COX-1 = settings: 0 = equal potency; above 0 more selective to COX-1, below 0 more selective to COX-2; cited from earlier work
[3] = Plasma levels of ibuprofen after embolisation, intra-arterial or intravenous administration; type: in vivo; settings: sheep, after intra-arterial administration (IA) of 50 mg solution in both left and right artery
[4] = tested on: colorectal cancer cell line; settings: cited from earlier work
[5] = high AMPS microspheres 500-710 μm
[6] = in less than 30 minutes, low and high AMPS microspheres, 100 mg/ml in ethanol
[7] = low AMPS microspheres 500-710 μm
[8] = 10 ml water, 37° C., released in the first 5 minutes

## O=C(O)Cc1ccccc1Nc1c(Cl)cccc1Cl [Diclofenac]
[1]; [5]
  dose loaded per ml of hydrated microspheres: 30 mg per ml of hydrated microsph
[1]; [6]
  drug solution located in the microspheres: 99%
[1]; [7]
  dose loaded per ml of hydrated microspheres: 26 mg per ml of hydrated microsph
HIF-2 alpha
  HIF-2 alpha gene expression: inhibited
HIF-1 alpha
  HIF-1 alpha gene expression: inhibited
[2]; further in 48 hrs, microspheres loaded with 26 and 30 mg/ml, 250 ml water at 37° C.
  further release: 35%
[2]; in first 5 minutes, microspheres loaded with 26 and 30 mg/ml, 250 ml water at 37° C.
  release: 18-26%

## CC(C(=O)O)c1cccc(Oc2ccccc2)c1 (stereo not shown) [Fenoprofen]
COX-2/COX-1
  Log [IC80 ratio WHMA COX-2/COX-1)]: 0

## CC(C(=O)O)c1ccc(-c2ccccc2)c(F)c1 (stereo not shown) [Flurbiprofen]
[1]; [5]
  dose loaded per ml of hydrated microspheres: 197 mg per ml of hydrated microsph
[1]; [6]
  drug solution located in the microspheres: 99%
[1]; [7]
  dose loaded per ml of hydrated microspheres: 195 mg per ml of hydrated microsph
[2]; further in 2 days, microspheres loaded with 200 mg/ml, 250 ml water at 37° C.
  further release: 5%
[2]; in first 10 minutes, microspheres loaded with 200 mg/ml, 250 ml water at 37° C.
  release: 30%

## CC(C)Cc1ccc(C(C)C(=O)O)cc1 (stereo not shown) [Ibuprofen]
[3]
  Cmax: 32000 ng/mL
[1]; 2 ml loading solution (250 mg/ml in ethanol) to 1 ml low AMPS microspheres, listed as Ibuprofen Free Acid
  Loading mg/ml Bead: 177.3 mg/ml Bead and 185.24 mg/ml Bead and 142.82 mg/ml Bead and 187.08 mg/ml Bead and 207.7 mg/ml Bead and 235.53 mg/ml Bead
[1]; 3 ml loading solution (250 mg/ml in ethanol) to 1 ml low AMPS microspheres
  Loading mg/ml Bead: 323.7 mg/ml Bead
[1]; loaded from ethanol, low AMPS beads 700 to 1100 μm, contraction then expels drug solution
  time at which optimum loading is obtained: around 20 mins
[1]; low AMPS microspheres, 250 mg/ml in ethanol, range over series of experiments
  doses loaded per ml of hydrated microspheres: 142-335 mg per ml of hydrated microspheres
HIF-2 alpha
  HIF-2 alpha gene expression: inhibited
[2]; low AMPS microspheres, elution up to 90 mls, up to 24 hrs, over experiments of table 1
  Elution rate (range): 20%-43%
[2]; low AMPS microspheres, up to 24 hrs
  Elution rate, average in most experiments: 25%
[2]; quick burst/wash out solvent 50% ethanol, elution solvent 50% ethanol, up to 24 hrs
  Eluted Drug: 53 mg
[2]; quick burst/wash out solvent 100% ethanol, elution solvent 0.9% Saline (pH 12), up to 24 hrs
  Eluted Drug: 60 mg
[2]; quick burst/wash out solvent 100% ethanol, elution solvent 50% ethanol, up to 24 hrs
  Eluted Drug: 47 mg
[2]; wash of loaded low AMPS microspheres in various media
  quick burst: approximately 15%
[2]; wash out and elution solvent 0.9% Saline (pH 12), 2 ml loading solution, up to 24 hrs, listed as Ibuprofen Free Acid
  Eluted Drug: 47 mg and 83 mg and 57 mg
[2]; wash out and elution solvent 0.9% Saline (pH 12), 3 ml loading solution, up to 24 hrs
  Eluted Drug: 77 mg

## CC(C(=O)O)c1cccc(C(=O)c2ccccc2)c1 (stereo not shown) [Ketoprofen]
[1]; high AMPS microspheres 500-710 μm, 30 mg/ml in ethanol
  ketoprofen loaded/ml spheres, maximum loading: approximately 10 mg ketoprofen loaded/ml spheres
[1]; low AMPS microspheres 500-710 μm, 30 mg/ml in ethanol
  ketoprofen loaded/ml spheres, maximum loading: approximately 12 mg ketoprofen loaded/ml spheres
[1]; low and high AMPS microspheres, 30 mg/ml in ethanol, monitored over 72 hours
  time of maximum loading: 24 h

## O=C(c1ccccc1)c1ccc2n1CCC2C(=O)O (stereo not shown) [Ketorolac]
[1]; high loaded microspheres
  ketorolac loaded in microspheres: 27 mg/mL
[1]; in less than 10 minutes, low AMPS microspheres 500-710 μm, 50 mg/ml and 10 mg/ml in water
  drug solution located in the microspheres: 99%
[1]; low loaded microspheres
  ketorolac loaded in microspheres: 13 mg/mL
HIF-2 alpha
  HIF-2 alpha gene expression: inhibited
[2]; high AMPS loaded microspheres (so in the source), first 5 minutes, 250 ml water at 37° C.
  released: 43%
[2]; high AMPS loaded microspheres (so in the source), further in the next 24 hrs
  further slow release: 4%
[2]; high AMPS loaded microspheres (so in the source), in 1 hrs, 250 ml water at 37° C.
  released: 90%
[2]; low loaded microspheres, first 5 minutes, 250 ml water at 37° C.
  released: 75%
[2]; low loaded microspheres, further in next 24 hrs
  further release: 5%
[2]; low loaded microspheres, in 1 hr, 250 ml water at 37° C.
  released: 90%

## CS(=O)(=O)Nc1ccc([N+](=O)[O-])cc1OC1CCCCC1 [NS398]
HIF-2 alpha
  HIF-2 alpha gene expression: inhibition
[4]
  expression of pro-angiogenic factors, including VEGF: diminished

## COc1ccc2cc([C@H](C)C(=O)O)ccc2c1 [Naproxen]
[1]; low or high AMPS microspheres 500-710 μm, 30 mg/ml in ethanol, over 168 hours
  naproxen taken up per ml of spheres: 35-40 mg naproxen/ml of spheres
[2]; [8]
  drug released per ml of microspheres: 6-9 mg/ml of microspheres
  loaded drug released from the microspheres: 17-25%
[2]; transfer to 10 ml fresh water after 17 hours, measured 7 hours more
  further release after transfer to fresh water: did not bring about any further release

## O=C(O)c1cccnc1Nc1cccc(C(F)(F)F)c1 [Niflumic Acid]
COX-2/COX-1
  Log [IC80 ratio WHMA COX-2/COX-1)]: 0

## Cc1cc(CC(=O)O)n(C)c1C(=O)c1ccc(Cl)cc1 [Zomepirac]
COX-2/COX-1
  Log [IC80 ratio WHMA COX-2/COX-1)]: 0

## CC(C)Cc1ccc(C(C)C(=O)[O-])cc1.[Na+] (stereo not shown) [ibuprofen sodium salt]
[1]; loaded from ethanol 250 mg/ml, low AMPS beads 700-1100 μm, loading decreases afterwards
  time at which maximum loading is reached: about 20 minutes
[1]; range over six microsphere products, 2 ml of 100 mg/ml in water to 1 ml microspheres, 100 minute period
  loading levels, drug per ml of hydrated beads: 67 to 142 mg of drug per ml of hydrated beads

## O=C(O)c1ccccc1O [salicylic acid]
[1]; low or high AMPS 500-710 μm, 5 mg/ml in ethanol, after 3-4 hours
  maximum salicylic acid taken up per ml of microspheres: 3-4 mg salicylic acid/ml of microspheres
[1]; low or high AMPS 500-710 μm, 5 mg/ml in ethanol, after 24 hours
  salicylic acid taken up per ml of microspheres: 2-3 mg/ml of microspheres
[2]; high AMPS microspheres, 37° C.
  salicylic acid loaded that was released: approximately 30%
[2]; low AMPS microspheres, 37° C.
  salicylic acid loaded that was released: approximately 25%
[2]; transfer to 10 ml fresh water after 60 hours, measured 60 hours more
  further release after transferral into fresh water: did not bring about any further release
